Source: patent US4084006A, “Method of using dialkylphenols an antiviral agents” (priority 1977, dated 1978)

Columns and labels:
San Carlos virus = experiment: Inhibition of cytopathic activity (CPE) of San Carlos virus in HEL tissue culture; assay type: cell-based, San Carlos virus (adenovirus); details: for CPE with 100 TCID50 doses of San Carlos virus: HEL cells
Experimental: The anti-viral activity of 2,4-dimethylphenol was studied in the following manner. Tissue cultures derived from human embryonic lung (HEL) were grown and maintained as monolayers in 32 ounce prescription bottles using growth medium consisting of 85% synthetic mixture No. 199 plus 15% unfiltered fetal bovine serum (FBS) adjusted to pH 7.4. Tube cultures of HEL cells were prepared in similar fashion and used in assays for anti-viral activity. During chemotherapy tests, the maintenance medium consisted of synthetic mixture No. 199 with 7.5% FBS. The virus spectrum in tissue culture consisted of two DNA viruses, a San Carlos virus isolated by Davis [see Science 133, 2059, 1961] and later identified as an adenovirus, and the HF strain of herpes simplex virus. In addition, a RNA virus represented by measles was included in the examples.
In performing the initial assays, the tissue cultures were treated prophylactically and the virus was treated in vitro with decreasing 2,4-dimethylphenol concentrations ranging from […] (2 × 10^-6) to 2 attograms (ag) (2 × 10^-18) per ml. The procedure consisted of pretreating tube cultures of HEL cells for two to three days with growth medium containing varying concentrations of 2,4-dimethylphenol. After the prophylactic treatment, the test fluids were removed and replaced with fresh maintenance medium. At this time, 200 TCID50 doses of virus were mixed in vitro with the same decreasing concentrations of the distillate used to pretreat the cells, then the mixture was inoculated into replicate culture of HEL cells so that the final incolum consisted of 100 TCID50 doses of virus in tubes with 2,4-dimethylphenol at the same level used to prophylactically treat the cells.
The same number of infected control tubes were handled in the same way except that 2,4-dimethylphenol was omitted from all media. Culture tubes were rotated at 37° C. and examined daily for a period of 7 days for cytopathic activity (CPE). […] By the same token, the CPE of herpes virus was inhibited by both the 10^-12 and 10^-15 level, possibly indicating two active components. […]

[1] = tested on: Mycoplasma pulmonis (ATCC 19612); experiment: Serum antibodies for Mycoplasma in rats; assay type: in vivo, Mycoplasma pulmonis (host: rat); details: one part per million; two of 19 infected rats in all groups, the other a control
Excerpt: Attempts were made to test the effect of infecting rats with Mycoplasma pulmonis (ATCC 19612) so that they could transmit the disease to their cage mates and, also allowed them to breed. This was also done to test if the mothers would pass the infection on to their litters. These rats were purchased from a laboratory in Indianapolis, Indiana and they were divided into 6 groups with male animals in each group. In the 5 experimental groups, a total of 15 female rats out of 30, and in the control group 4 female rats out of 8 were infected intranasally with Mycoplasma pulmonis (ATCC 19612). There were two male rats per experimental group and 3 for the controls totaling 13 male rats, and none of these were infected with M. pulmonis.
The experimental groups (8 rats each) and control group were treated as follows:
All rats were fed ad libitum rat chow, and their cages were cleaned 5-6 times weekly. For the 5 experimental groups, the 2,4 DMP was dissolved in distilled water used for their drinking fluid while the control only received distilled water. There were times when the rats spilled excessive amounts of their drinking water and this caused a certain amount of the phenol to be evaporated from these cages, particularly those groups receiving the higher concentrations of the phenol. […]

For `Cc1ccc(O)c(C)c1` [2,4-dimethylphenol], the “CPE with 100 TCID50 doses of San Carlos virus” value (“CPE with 100 TCID50 doses” for short) (San Carlos virus; 2,4-dimethylphenol 10^-4 grams 2X) was 4+ (100% of cells infected with selected virus), the “CPE with 100 TCID50 doses” value (San Carlos virus; 10^-5 grams 2X) was 2+ (50% of cells infected with selected virus) and the “CPE with 100 TCID50 doses” value (San Carlos virus; 10^-6 grams 2X) was 2+ (50% of cells infected with selected virus). For the same compound, the “CPE with 100 TCID50 doses” value (San Carlos virus; 10^-7 grams 2X) was 1+ (25% of cells infected with selected virus), the “CPE with 100 TCID50 doses” value (San Carlos virus; 10^-8 grams 2X) was 1+ (25% of cells infected with selected virus) and the “CPE with 100 TCID50 doses” value (San Carlos virus; 10^-9 grams 2X) was 1+ (25% of cells infected with selected virus). For the same compound, the “CPE with 100 TCID50 doses” value (San Carlos virus; 10^-10 grams 2X) was 1+ (25% of cells infected with selected virus), the “CPE with 100 TCID50 doses” value (San Carlos virus; 10^-11 grams 2X) was 1+ (25% of cells infected with selected virus) and the “CPE with 100 TCID50 doses” value (San Carlos virus; 10^-12 grams 2X) was 2+ (50% of cells infected with selected virus). The “CPE with 100 TCID50 doses” value (San Carlos virus; 10^-13 grams 2X) was 2+ (50% of cells infected with selected virus), the “CPE with 100 TCID50 doses” value (San Carlos virus; 10^-14 grams 2X) was 3+ (75% of cells infected with selected virus) and the “inhibition of CPE produced by San Carlos virus” value (San Carlos virus; picograms, 10^-10 to 10^-12 per ml of medium) was “slight but consistent inhibition”. The “M. pulmonis infected rats with detectable Mycoplasma antibody titers” value [1] was “One”.
